Assay results reported in paper PMC8778187, “A New Oxygen Containing Pyclen-Type Ligand as a Manganese(II) Binder for MRI and ^52Mn PET Applications: Equilibrium, Kinetic, Relaxometric, Structural and Radiochemical Studies” (Molecules, 2022).
Where “and” joins values, the source holds several entries; their conditions need not be identical. Equal values may be shown once.

How the values were obtained:
[1] = Metal exchange reactions with Cu(II) followed by UV-Vis as a function of pH; format: physicochemical
Method: Metal exchange reactions occurring with Cu(II) studied as a function of pH: a more detailed dissociation kinetic study was performed by using the Cu(II) ion. Metal exchange reactions occurring with Cu(II) were followed by UV-Vis as a function of the pH (in the pH range of 3.44–4.97) and metal ion concentration (20- and 40-fold excess of Cu(II) was applied), in order to evaluate the rates of spontaneous (k0 rate constant) and/or proton assisted (k1 rate constant) and/or metal ion provoked dissociation (kM).
As it can be seen in Figure 4, the rate constants (kobs) are proportional to the H^+ ion concentration, while they slightly decrease with the increasing Cu(II) concentration. Therefore, one can assume that [Mn(3,9-OPC2A)] dissociates by following spontaneous (the positive value of the intercept with the y axis) and proton assisted pathways, while Cu(II) is involved in the formation of a dinuclear intermediate with a relatively low stability [Mn(3,9-OPC2A)Cu]^2+, which is a “dead-end” complex (i.e., its formation reduces the concentration of the reactive protonated species, thereby slowing down the reaction). The dissociation pathways followed by [Mn(3,9-OPC2A)] can be accounted for by Equation (1), where [Mn(L)]t is the total concentration of the Mn(II) complex, and the k0, kH, and kM are the rate constants characterizing the spontaneous, the proton and metal ion assisted pathways, respectively. (1) −d[Mn(L)]/dt=kobs[Mn(L)]t=k0[Mn(L)]+kH[Mn(HL)]+kHHMnH2L+kM[Mn(L)Cu]
Using the expressions for the stability and protonation constants of the complexes, and that of the dinuclear intermediate [Mn(L)Cu], one can derive Equation (1) (in this expression k1 = kH × KMnL×H; k2 = kH^H × KMnL×H; × KMnLH×H; k3 = kM × KMnL×Cu; where KMnL×H; and KMnLH×H are the protonation constants of [Mn(3,9-OPC2A)] and KMnL×Cu is the stability constant of the dinuclear [Mn(3,9-OPC2A)Cu]^2+ intermediate, which is used for the fitting of the kobs rate data—the proton assisted dissociation pathways involving a diprotonated intermediate, characterized k2, play a negligible role in the dissociation of the [Mn(3,9-OPC2A)] complex under the experimental conditions used for kinetic studies. (2) kobs=k0+k1H^+/1+KHH^++KMCu^2+
Metal exchange reactions occurring between the complex and Cu(II) (in the presence of a 20- and 40-fold excess, to ensure pseudo-first-order conditions) was investigated at 25 °C and 0.15 M NaCl ionic strength, by using a JASCO V-760 UV-VIS spectrophotometer at 290 nm. […] The values of the pseudo-first-order rate constants (kobs) were determined using the following equation: At = Av + (A0 − Av)e^kobs×t, where At is the absorbance at time t, A0 is the absorbance of the reactants, and Av is the absorbance of the products.

[2] = Serum stability in Seronorm followed by r1p relaxation rates; format: in vitro ADME, human
Method: Serum “stability” of the [Mn(3,9-OPC2A)] chelate: during MRI investigations, the CAs are injected into the vein of the patients and, following their injection, the complexes can meet with different proteins present in the blood serum, which are known to bind the essential metal ions in relatively strong manner. Therefore, the plasma proteins can potentially initiate transmetalation/transchelation reactions, especially in the case of Mn(II) complexes whose thermodynamic stability is lower than the stability of the chelates formed with essential metal ions, such as Zn(II) or Cu(II). What is more, for some Mn(II) complexes, depending upon the stability constants, of course, the Ca(II) ions present at high concentrations in the serum can initiate the dissociation of the complex, as in the case of [Mn(EGTA)]^2^−, [Mn(BAPTA)]^2^−, or [Mn(CaM)], for instance. In nuclear medicine, serum “stability” studies are routinely performed, in order to access the integrity of the chelates in the given competitive media.
The serum stability of the Mn(II) complexes was studied by following the r1p relaxation rates of the complex over time, using 1.0 mM solutions in SeronormTM (Seronorm = commercially available lyophilized human blood serum, Sero, Stasjonsveien, Norway) at pH = 7.43 and 25 °C.

O=C([O-])CN1CCOCCN(CC(=O)[O-])Cc2cccc(n2)C1.[Mn+2] [[Mn(3,9-OPC2A)]]
t1/2 (h) at pH = 7.4 ([1]; extrapolated to pH = 7.4 from Cu(II) exchange rate constants, calculated with the use of k0 value, cZn(II) = 1 × 10^−5 M): 21.9 h
k1 ([1]; proton assisted dissociation, T = 25 °C, I = 0.15 M NaCl): 2.81 ± 0.07 M⁻¹ s⁻¹ and 2.81 M⁻¹ s⁻¹
k0 ([1]; spontaneous dissociation, T = 25 °C, I = 0.15 M NaCl, to be treated as higher limit): (8.6 ± 1.1) × 10^−6 s^−1
KML x Cu ([1]; stability constant of dinuclear intermediate, T = 25 °C, I = 0.15 M NaCl): 7 ± 4
time over which the relaxation rate remained constant in Seronorm ([2]; 1.0 mM complex, pH = 7.43, 25 °C, negligible dissociation): at least 80 h
r1p in Seronorm solution ([2]; 1.41 T, 25 °C): 5.09 mM⁻¹ s⁻¹
